Results on 43 compounds are retold here after US8058243B2, “Method for treating a brain cancer with ifenprodil” (HSC Research and Development Limited Partnership, priority 2006, dated 2011).

Counter-ions that a name gives are not always drawn. Like-named read-outs stand apart in the source and are kept apart here.

The test system of the assay is murine neural precursor cells (neurosphere cultures). Put plainly: HTS of LOPAC library against secondary neurosphere cultures, MTT proliferation assay at 3 μM, day 7 (z score, P value). Format: cell-based, mouse. For orientation: Formazan colour is commonly taken as a measure of viable cells.
[1] abbreviates: primary LOPAC screen, 3 μM, MTT, neurosphere proliferation.
Setting [2] is: yes/no: significantly inhibited neurosphere proliferation in the primary screen.
[3] abbreviates: yes/no: significantly inhibited neurosphere proliferation in primary screen.
Where [4] appears, read: LOPAC library screen, 3 μM, MTT, secondary neurosphere cultures, day 7.
[5] abbreviates: LOPAC primary screen, neurosphere MTT proliferation, 3 μM, day 7.
The mark [6] stands for this setting: yes/no: significantly inhibited neurosphere proliferation (P<0.01) in the primary screen.
[7] abbreviates: yes/no: significantly inhibited neurosphere proliferation (P<0.01) in primary screen.
Setting [8] is: LOPAC library screen, 3 μM, MTT, neurosphere cultures.
Setting [9] is: yes = significantly inhibited neurosphere proliferation (P<0.01) in the primary screen.
[10] abbreviates: LOPAC library screen at 3 μM, MTT, secondary neurosphere cultures, screened in singlets.
Setting [11] is: LOPAC library screen at 3 μM, secondary neurosphere cultures, MTT.
[12] abbreviates: LOPAC screen, neurosphere MTT proliferation, 3 μM, day 7.

Regarding `CC(C)Oc1cccnc1N(C)C1CCN(Cc2ccccc2)CC1.O=C(O)/C=C\C(=O)O` [U-101958 maleate], the “Z Score” value is recorded as −2.065. The Z score under setting [1] is −2.065. Also, the Activity entry under setting [2] is “no”.

With `CN1CCN(CC(=O)N2c3ccccc3C(=O)Nc3cccnc32)CC1` [Pirenzepine dihydrochloride], the Z score (168 h, 3 µM) is −0.545. The Activity entry under setting [3] was “no”.

As to `CC1=C(/C=C/C(C)=C/C=C/C(C)=C\C(=O)O)C(C)(C)CCC1` [13-cis-retinoic acid], the “Z Score” value under setting [4] was −1.469. This compound also displayed a Z score under setting [5] of −1.469. The Activity entry under setting [6] is “no”.

For `CC(C)[N+]1(C)[C@@H]2CC[C@H]1CC(OC(=O)C(CO)c1ccccc1)C2.[Br-]` (some centres unmarked) [Ipratropium bromide], the “Z Score” value was −0.308. For the same compound, the Z score under setting [5] was −0.308. For the same compound, the Activity result under setting [7] is “no”.

With `[N-]=[N+]=Nc1ccc(C(=O)CSC[C@H](NC(=O)CC[C@H](N)C(=O)O)C(=O)NCC(=O)O)cc1` [S-(p-Azidophenacyl)glutathione], the “Z Score” value under setting [8] was −0.00276. For the same compound, the Z score under setting [1] is given as −0.003. Also, under setting [2], the Activity result was “no”.

Consider `CN1C(C)(C)CCCC1(C)C` [Pempidine tartrate], for which the “Z Score” value under setting [4] was −1.719. The compound also registered a Z score under setting [5] of −1.719. Further, the Activity entry under setting [9] is “no”.

With `CC(N)(C(=O)O)c1ccc(C(=O)O)cc1` (stereo not drawn) [(B1)-alpha-Methyl-4-carboxyphenylglycine], the “Z Score” value is given as 0.727.

For the compound `CCN1CCC[C@H]1CNC(=O)c1c(O)c(Cl)cc(Cl)c1OC.O=C(O)C(O)C(O)C(=O)O` (racemic) [S(+)-Raclopride L-tartrate], the “Z Score” value under setting [10] worked out at 1.901. The same compound showed a Z score under setting [5] of 1.901. Further, the Activity entry under setting [6] is “no”.

In the case of `NCCc1c[nH]c2ccc(O)cc12` [Serotonin hydrochloride], where the note is “168 h, 3 µM”, the “Z Score” value is −2.197 and the Z score is −2.197. Besides, the Activity result under setting [7] is “no”.

On to `COc1ccc2c(c1)[C@@]13CCCC[C@H]1[C@@H](C2)NCC3.Cl` [3-Methoxy-morphanin hydrochloride], for which the “Z Score” value is given as −7.714. This compound registered a Z score under setting [5] of −7.714. In addition, the Activity entry under setting [6] is “yes”.

Regarding `O=C(Nc1cc(C(=O)Nc2ccc(S(=O)(=O)[O-])cc2S(=O)(=O)[O-])cc(C(=O)Nc2ccc(S(=O)(=O)[O-])cc2S(=O)(=O)[O-])c1)Nc1cc(C(=O)Nc2ccc(S(=O)(=O)[O-])cc2S(=O)(=O)[O-])cc(C(=O)Nc2ccc(S(=O)(=O)[O-])cc2S(=O)(=O)[O-])c1.[Na+].[Na+].[Na+].[Na+].[Na+].[Na+].[Na+].[Na+]` [NF449 octasodium salt], the “Z Score” value stood at 1.851. The compound further came in with a Z score under setting [5] of 1.851. Also, the Activity entry under setting [9] is given as “no”.

For the compound `N.N.[Cl][Pt][Cl]` [Cisplatin], the “Z Score” value under setting [10] was found to be 1.523. The Z score under setting [5] is on record as 1.523. The Activity entry under setting [3] is recorded as “no”.

With `CCCCNc1c(C(=O)OCC)c(C)nc2c1cnn2CC` [Tracazolate], the “Z Score” value under setting [11] is −0.3151. This compound showed a Z score under setting [1] of −0.315. For the same compound, the Activity entry under setting [2] is “no”.

Regarding `O.c1cnc2c(c1)ccc1cccnc12` [1,10-Phenanthroline monohydrate], the “Z Score” value was −0.8855. Besides, under setting [5], the Z score is reported as −0.886. Under setting [3], the Activity entry is “no”.

As to `C#CCn1c(=O)c2c(ncn2C)n(C)c1=O` [3,7-Dimethyl-I-propargylxanthine], the “Z Score” value came out at 1.454. The Z score under setting [12] was 1.454. Further, the Activity entry under setting [7] is listed as “no”.

In the case of `CCCCCCCCCCCCCCCCCCOCC(COP(=O)([O-])OCC[N+](C)(C)C)OC` (centres unmarked) [ET-18-OCH3], under setting [11], the “Z Score” value is on record as −0.6259. For the same compound, the Z score under setting [12] is −0.626. In addition, the Activity result under setting [7] was “no”.

In the case of `Cl.OC[C@H]1NC[C@H](O)[C@@H](O)[C@@H]1O` [1-Deoxynojirimycin hydrochloride], the “Z Score” value under setting [8] was found to be 1.242. The same compound came in with a Z score under setting [12] of 1.242. Further, the Activity result under setting [7] is recorded as “no”.

In the case of `CN(C)C(=O)Oc1cccc([N+](C)(C)C)c1` [Neostigmine bromide], the “Z Score” value was found to be 1.228. For the same compound, the Z score under setting [5] was determined as 1.228. In addition, under setting [9], the Activity entry is listed as “no”.

With `N#C/C(=C\c1ccc(O)c(O)c1)C(=O)NCCCNC(=O)/C(C#N)=C/c1ccc(O)c(O)c1` [Tyrphostin AG 537], the “Z Score” value is reported as −1.249. This compound showed a Z score under setting [1] of −1.249. Also, under setting [2], the Activity result was “no”.

As to `NC(=O)OCC(COC(N)=O)c1ccccc1` [Felbamate], under setting [11], the “Z Score” value was −0.4586. Moreover, the Z score under setting [5] was −0.459. For the same compound, the Activity result under setting [7] is on record as “no”.

For `O=NN(CCCl)C(=O)NCCCl` [Carmustine], the “Z Score” value under setting [10] came to 2.191. In addition, the Z score under setting [12] was 2.191. Moreover, the Activity result under setting [7] is on record as “no”.

In the case of `Cc1nnc(SCC2=C(C(=O)O)N3C(=O)[C@@H](NC(=O)Cn4cnnn4)[C@H]3SC2)s1` [Cefazolin sodium], the “Z Score” value under setting [4] was −2.58. In addition, the Z score under setting [5] is reported as −2.580. The Activity entry under setting [6] was “yes”.

As to `Cl.NCCc1ccc(O)cc1` [4-Hydroxyphenethylamine hydrochloride], the “Z Score” value was 1.03. Under setting [1], this compound came in with a Z score of 1.030. For the same compound, the Activity result under setting [2] was “no”.

On to `CN(N=O)c1ccc(O)c(O)c1` [Me-3,4-dephostatin], for which the “Z Score” value was 0.5834. Under setting [5], this compound yielded a Z score of 0.583. For the same compound, the Activity entry under setting [9] was “no”.

On to `Cl.OCc1c[nH]cn1` [4-Imidazolemethanol hydrochloride], for which the “Z Score” value is given as −2.077. Under setting [5], this compound yielded a Z score of −2.077. Moreover, under setting [7], the Activity result was “no”.

Take `CCN(c1nc(N)c(C(=O)N=C(N)N)nc1Cl)C(C)C` [5-(N-Ethyl-N-isopropyl)amiloride]: the “Z Score” value is recorded as −0.2886. The compound also yielded a Z score under setting [1] of −0.289. For the same compound, under setting [2], the Activity result is reported as “no”.

As to `CCCCc1oc2ccccc2c1C(=O)c1cc(I)c(OCCN(CC)CC)c(I)c1` [Amiodarone hydrochloride], under setting [8], the “Z Score” value was found to be 0.9292. In addition, under setting [1], the Z score is recorded as 0.929. Further, the Activity result under setting [2] was “no”.

Consider `Cc1cc(C)c(/C=C2\C(=O)Nc3ccccc32)[nH]1` [SU 5416], for which the “Z Score” value is −0.6622. The Z score under setting [5] is reported as −0.662. The Activity entry under setting [3] is “no”.

For the compound `CCN1CCC[C@H]1CNC(=O)c1c(OC)ccc(I)c1O` [S(−)-IBZM], the “Z Score” value is −0.1166. Also, under setting [5], the Z score was −0.117. For the same compound, under setting [6], the Activity result was “no”.

For `CN(N=O)c1cc(O)ccc1O` [Dephostatin], the “Z Score” value was found to be 0.6209. In addition, the Z score under setting [12] worked out at 0.621. Moreover, under setting [7], the Activity result was “no”.

As to `CCCN(CCC)C(=O)C(CCC(=O)O)NC(=O)c1ccccc1` (centres unmarked) [Proglumide], the “Z Score” value under setting [4] was −1.907. Under setting [5], this compound showed a Z score of −1.907. Moreover, the Activity entry under setting [9] was “no”.

Take `C=C[C@H]1C[N@@]2CC[C@H]1C[C@H]2[C@H](O)c1ccnc2ccc(OC)cc12` [Quinine sulfate]: the “Z Score” value under setting [11] is −0.2686. In addition, under setting [5], the Z score is −0.269. The Activity entry under setting [3] was “no”.

As for `CCC1(C2=NCCN2)Cc2ccccc2O1` (centres unmarked) [Efaroxan hydrochloride], under setting [4], the “Z Score” value is −2.338. The Z score under setting [5] was −2.338. Further, under setting [6], the Activity entry is given as “yes”.

Turning to `O=C(C1CCCCC1)N1CC(=O)N2CCc3ccccc3C2C1` (centres unmarked) [Praziquantel], the “Z Score” value under setting [4] is recorded as −2.296. Under setting [5], this compound registered a Z score of −2.296. Also, under setting [9], the Activity entry was “no”.

On to `NC(=O)c1cccc(N)c1` [3-aminobenzamide], for which the “Z Score” value is on record as −1.034. Further, the Z score under setting [5] was −1.034. Further, the Activity entry under setting [3] was “no”.

With `Clc1ccc(C(c2ccc(Cl)cc2)n2cc[n+](CC(OCc3ccc(Cl)cc3Cl)c3ccc(Cl)cc3Cl)c2)cc1` (centres unmarked) [Calmidazolium chloride], under “168 h, 3 µM”, the “Z Score” value is listed as −8.582 and the Z score is −8.582. Also, under setting [9], the Activity result was “yes”.

With `O=C(O)Cc1ccccc1Nc1c(Cl)cccc1Cl` [Diclofenac sodium], the “Z Score” value under setting [8] is 0.2988. In addition, the Z score under setting [12] came out at 0.299. For the same compound, the Activity result under setting [7] is “no”.

Regarding `N[C@@H](C(=O)N[C@@H]1C(=O)N2C(C(=O)O)=C(Cl)CS[C@H]12)c1ccccc1` [Cefaclor], the “Z Score” value under setting [4] is −3.009. Further, the Z score under setting [5] is −3.009. For the same compound, the Activity entry under setting [6] is given as “yes”.

As for Dextrorphan D-tartrate, the Activity entry was “no”, the “Z Score” value turned out to be 1.569 and the Z score came to 1.569.

Consider `NC(CCCP(=O)(O)O)C(=O)O` (racemic) [(±)-2-Amino-5-phosphonopentanoic acid], for which the Z score (168 h, 3 µM) is reported as −1.045. The Activity result under setting [2] is “no”.

With `Cl.c1ccc2c(N3CCNCC3)cccc2c1` [1-(1-Naphthyl)piperazine hydrochloride], the “Z Score” value is given as 0.2301. Under setting [5], this compound registered a Z score of 0.230. Also, under setting [3], the Activity result is “no”.

Take `NC1(C(=O)O)CCc2cc(C(=O)O)ccc21` (centres unmarked) [AIDA]: the “Z Score” value is 0.154. In addition, the Z score under setting [1] turned out to be 0.154. Besides, the Activity entry under setting [2] is on record as “no”.

Turning to `COc1cccc(-c2cc(=O)c3ccccc3o2)c1N` [PD 98,059], the Activity entry was “no” and the “Z Score” value is 0.9027. The same compound displayed a Z score under setting [5] of 0.903.
